Data: patent US6566401B2, “N-acetylcysteine compositions and methods for the treatment and prevention of drug toxicity” (The Board of Trustees of the Leland Stanford Junior …, priority 2001, dated 2003)

Columns and labels:
[1] = cited from earlier work
[2] = NAC treatment of subjects taking AZT: hematologic toxicity; type: in vivo, human; settings: HIV disease
Source text: Results have shown that acetaminophen usage, which lowers glutathione levels exacerbates AZT toxicity. Richman, et al. (1987) N. Eng. J. Med. 317: 192-97. De Rosa et al. recently have shown that treatment with NAC which increases glutathione levels decreases the toxicity. De Rosa et al., submitted to JAMA for publication.
It appears that NAC provides cysteine needed to redress the excessive sulfur loss that occurs in HIV disease and specifically to replenish intracellular glutathione. […] This decreases the AZT-mediated inhibition of erythroid development, helps to improve the overall metabolism and stability of erythrocytes and their progenitors (for example, by enabling optimal functioning of the glucose-6-phosphate dehydrogenase and other energy-supplying pathways). In addition, it improves the cell's ability to withstand the production of oxidants induced by the introduction of drugs (such as AZT) and the internal production of molecules (such as TNF and HIV-TAT) that trigger intracellular oxidant production.

[3] = effects counter to those reported for NAC; cited from earlier work

Row | SMILES | half-cell potential for the NAC thiol/disulfide pair [1] | effect of NAC treatment on AZT's hematologic toxicity [2] | bioactive dose relative to NAC (fold less than NAC) [3]
1 | CC(=O)N[C@@H](CS)C(=O)O [NAC, N-acetylcysteine] | about +63 mV | decreases AZT's hematologic toxicity | 
2 | CC(=O)N[C@@H](CSSC[C@H](NC(C)=O)C(=O)O)C(=O)O [oxidized form of NAC, di-n-acetylcysteine] |  |  | 10-100 fold
